Measured values published in ChEMBL document CHEMBL1158047, “Lanostane triterpenoids from the Sri Lankan basidiomycete Ganoderma applanatum” (2006).

Test system: P388
Test: Cytotoxicity against mouse P388 cells
Assay type: functional

## C=C(C(=O)C[C@@H](C)[C@H]1CC[C@@]2(C)C3=C(CC[C@]12C)[C@@]1(C)CC[C@@H](OC(=O)CC(=O)O)C(C)(C)[C@@H]1CC3)C(C)C(=O)O (stereo not given in full)
  Activity: >125 µg/mL

## CC(C)=CCC[C@@H](C(=O)O)[C@H]1[C@H](O)C[C@@]2(C)C3=CC[C@H]4C(C)(C)[C@H](O)CC[C@]4(C)C3=CC[C@]12C
  Activity: >125 µg/mL

## C/C(=C\CC[C@@H](C(=O)O)[C@H]1[C@H](O)C[C@@]2(C)C3=CC[C@H]4C(C)(C)[C@H](O)CC[C@]4(C)C3=CC[C@]12C)CO
  Activity: >125 µg/mL

## CC(C)=CCC[C@@H](C(=O)O)[C@H]1[C@H](O)C[C@@]2(C)C3=CC[C@H]4C(C)(C)C(=O)CC[C@]4(C)C3=CC[C@]12C
  Activity: 237 µM

## CC(C(=O)O)[C@@H](C)C(=O)C[C@@H](C)[C@H]1CC[C@@]2(C)C3=C(CC[C@]12C)[C@@]1(C)CC[C@@H](OC(=O)CC(=O)O)C(C)(C)[C@@H]1CC3 (stereo not given in full) [CARBOXYACETYLQUERCINIC ACID]
  Activity: >125 µg/mL
